Source: US12723063B2, “GIPR-agonist compounds” (Eli Lilly and Company, priority 2019, dated 2026)
*1 amine or outer side, *2 acyl side, *3 side chain or, on linkers, in order; H or OH if unused. Where a SMILES comes first, the peptide text is derived from it. Side-chain parts run from the residue outwards. [ ]: non-standard residue; d: D form. The star is where a group is joined. C18 diacid = O=C(O)CCCCCCCCCCCCCCCCC(=O)*; γGlu = O=C(O)[C@H](CCC(=O)[*:2])N[*:1]; 4Pal = N[C@@H](Cc1ccncc1)C(=O)O; AEEA = NCCOCCOCC(=O)O; Aib = CC(C)(N)C(=O)O

Key:
[1] = biological target: T1, human glucagon receptor (GcgR) (Homo sapiens, UniProt P47871); test: cAMP functional assay (HTRF) in HEK293 cells in presence of 0.1% casein; format: cell-based; settings: HEK293 cells expressing human GcgR, geometric mean, read-out: hGcgR cAMP Rel EC50 nM (SEM, n)
T1 construct: expressed in transfected cells; host or cells: HEK293

[2] = biological target: T2, human glucose-dependent insulinotropic peptide receptor (GIPR) (Homo sapiens, UniProt P48546); test: as above; format: cell-based; settings: HEK293 cells expressing human GIPR, geometric mean, read-out: hGIPR cAMP Rel EC50 nM (SEM, n)
T2 construct: expressed in transfected cells; host or cells: HEK293
T2 sequence (P48546 22-466): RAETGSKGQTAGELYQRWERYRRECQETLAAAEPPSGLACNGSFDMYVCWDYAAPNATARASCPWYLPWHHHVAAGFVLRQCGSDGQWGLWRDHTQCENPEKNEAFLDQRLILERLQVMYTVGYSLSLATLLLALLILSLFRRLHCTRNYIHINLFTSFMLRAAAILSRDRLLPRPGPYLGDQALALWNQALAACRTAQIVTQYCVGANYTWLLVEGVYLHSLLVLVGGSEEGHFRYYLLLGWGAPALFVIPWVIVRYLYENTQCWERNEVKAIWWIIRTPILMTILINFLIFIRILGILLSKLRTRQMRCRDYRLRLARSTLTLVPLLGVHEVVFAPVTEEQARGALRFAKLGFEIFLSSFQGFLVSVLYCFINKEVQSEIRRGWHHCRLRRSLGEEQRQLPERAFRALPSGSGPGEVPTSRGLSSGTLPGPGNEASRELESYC

T1 sequence (P47871 26-477): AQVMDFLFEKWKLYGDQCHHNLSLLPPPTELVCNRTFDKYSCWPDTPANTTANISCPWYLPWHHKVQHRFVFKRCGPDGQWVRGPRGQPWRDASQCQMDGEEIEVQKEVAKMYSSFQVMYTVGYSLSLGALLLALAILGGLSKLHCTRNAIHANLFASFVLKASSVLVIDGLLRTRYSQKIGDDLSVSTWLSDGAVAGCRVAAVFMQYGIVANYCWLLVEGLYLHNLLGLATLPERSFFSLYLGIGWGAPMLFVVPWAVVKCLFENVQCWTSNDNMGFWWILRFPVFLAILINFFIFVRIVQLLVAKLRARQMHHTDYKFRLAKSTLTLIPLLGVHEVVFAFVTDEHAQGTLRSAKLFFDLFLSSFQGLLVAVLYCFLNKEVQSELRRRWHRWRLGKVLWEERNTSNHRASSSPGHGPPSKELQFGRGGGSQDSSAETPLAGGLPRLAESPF

| Structure (SMILES) | EC50 [1] [nM] | EC50 [2] [nM] |
| --- | --- | --- |
| CC[C@H](C)[C@H](NC(=O)[C@H](CO)NC(=O)[C@H](Cc1ccc(O)cc1)NC(=O)[C@H](CC(=O)O)NC(=O)[C@H](CO)NC(=O)[C@@H](NC(=O)[C@H](Cc1ccccc1)NC(=O)[C@@H](NC(=O)CNC(=O)[C@H](CCC(=O)O)NC(=O)[C@@H](C)NC(=O)[C@@H](N)Cc1ccc(O)cc1)[C@@H](C)O)[C@@H](C)CC)C(=O)N[C@@H](CC(C)C)C(=O)N[C@@H](CC(C)C)C(=O)N[C@@H](CC(=O)O)C(=O)N[C@@H](CCCCN)C(=O)N[C@@H](CCCCNC(=O)COCCOCCNC(=O)COCCOCCNC(=O)CC[C@H](NC(=O)CCCCCCCCCCCCCCCCC(=O)O)C(=O)O)C(=O)N[C@@H](C)C(=O)N[C@@H](CCC(N)=O)C(=O)NC(C)(C)C(=O)N[C@@H](CC(=O)O)C(=O)N[C@@H](Cc1ccccc1)C(=O)N[C@H](C(=O)N[C@@H](CC(N)=O)C(=O)N[C@@H](Cc1ccncc1)C(=O)N[C@@H](CC(C)C)C(=O)N[C@@H](CC(C)C)C(=O)N[C@@H](C)C(=O)N[C@@H](CCC(N)=O)C(=O)NCC(=O)N1CCC[C@H]1C(=O)N[C@@H](CO)C(=O)N[C@@H](CO)C(=O)NCC(=O)N[C@@H](C)C(=O)N1CCC[C@H]1C(=O)N1CCC[C@H]1C(=O)N1CCC[C@H]1C(=O)N[C@@H](CO)C(N)=O)C(C)C [Example 18] (H-Y[dA]EGTFISDYSILLDKK([AEEA-AEEA-γGlu-C18 diacid])AQ[Aib]DFVN[4Pal]LLAQGPSSGAPPPS-NH2) | > 5000 | 0.00656 |
| CC[C@H](C)[C@H](NC(=O)[C@H](CO)NC(=O)[C@H](Cc1ccc(O)cc1)NC(=O)[C@H](CC(=O)O)NC(=O)[C@H](CO)NC(=O)[C@@H](NC(=O)[C@H](Cc1ccccc1)NC(=O)[C@@H](NC(=O)CNC(=O)[C@H](CCC(=O)O)NC(=O)[C@@H](C)NC(=O)[C@@H](N)Cc1ccc(O)cc1)[C@@H](C)O)[C@@H](C)CC)C(=O)N[C@@H](CC(C)C)C(=O)N[C@@H](CC(C)C)C(=O)N[C@@H](CC(=O)O)C(=O)N[C@@H](CCCCN)C(=O)N[C@@H](CCCCNC(=O)COCCOCCNC(=O)COCCOCCNC(=O)CC[C@H](NC(=O)CCCCCCCCCCCCCCCCC(=O)O)C(=O)O)C(=O)N[C@@H](C)C(=O)N[C@@H](CCC(N)=O)C(=O)NC(C)(C)C(=O)N[C@@H](CC(=O)O)C(=O)N[C@@H](Cc1ccccc1)C(=O)N[C@H](C(=O)N[C@@H](CC(N)=O)C(=O)N[C@@H](Cc1c[nH]c2ccccc12)C(=O)N[C@@H](CC(C)C)C(=O)N[C@@H](CC(C)C)C(=O)N[C@@H](C)C(=O)NCC(=O)NCC(=O)N1CCC[C@H]1C(=O)N[C@@H](CO)C(=O)N[C@@H](CO)C(=O)NCC(=O)N[C@@H](C)C(=O)N1CCC[C@H]1C(=O)N1CCC[C@H]1C(=O)N1CCC[C@H]1C(=O)N[C@@H](CO)C(N)=O)C(C)C [Example 19] (H-Y[dA]EGTFISDYSILLDKK([AEEA-AEEA-γGlu-C18 diacid])AQ[Aib]DFVNWLLAGGPSSGAPPPS-NH2) | > 5000 | 0.00992 |
